Like-named read-outs stand apart in the source and are kept apart here.
Columns and labels:
DLBCL = assay: Phase 1/2 clinical study, DLBCL patients; assay type: in vivo, human
Description: (§1) The study is an open-label, multi-center study of oral BTK-I to evaluate safety and efficacy as monotherapy and as part of combination therapy in patients with CLL/SLL and NHL who have failed or are intolerant to standard of care. This study includes monotherapy as well as combination treatment parts. The monotherapy part includes Phase 1 dose escalation and dose expansion as well as Phase 2. The combination therapy part is a Phase 1b (safety assessment and expansion) of BTK-I in combination with venetoclax, with or without anti-CD20 therapy. Phase 1 dose escalation will proceed prior to start of Phase 1b or Phase 2. Once a recommended Phase 2 dose (RP2D) is identified in Phase 1, enrollment can commence to the Phase 1b combination therapies and Phase 2 monotherapy cohorts. […]
(§2) The primary objective of the Phase 2 is to assess the primary anti-tumor activity of BTK-I based on overall response rate (ORR) and as assessed by the Independent Review Committee. […]
(§3) Dosing during Phase 2 will be at the RP2D of 200 mg QD. […] The dose (and schedule) chosen for Phase 2 may be changed by the SRC based on emerging data (e.g., PK, safety, and/or efficacy) as long as the new dose is not greater than the highest dose that has a DLT <33% and is determined to be safe by the SRC in Phase 1. […]

Richter's transformation = assay: Phase 1/2 clinical study, Richter's transformation patients; assay type: in vivo, human; details: 6 of 8 patients
Description: as §1, §2, §3

BTK wild type = molecular target: T1, BTK wild type (Homo sapiens, UniProt Q06187); assay: BTK Y223 autophosphorylation in HEK293 cells expressing BTK wild type; assay type: cell-based; details: for IC90: HEK293, wild type BTK
T1 construct: expressed in transfected cells
Experimental: HEK293 cell lines stably expressing BTK wild type and the mutant form C481S are generated using standard transfection methods. For assessment of cellular inhibition potency, cells are grown in DMEM+10% FBS+1 μg/mL puromycin (complete growth media) at 37° C. in a C02 incubator. Cells are harvested according to standard protocols using TrypLE (Gibco #12604-013), counted, resuspended in complete growth media, and added to 6 well assay plates at […] in 2 mL. Plates are incubated overnight at 37° C. with 5% C02. The following day, cells are treated for 2 hours with BTK-I, prepared as a 6-point dose curve, 1:3 dilution series with final concentrations starting at a maximum concentration of 300 nM and a constant DMSO concentration of 0.5% (v/v). Control wells contain 0.5% (v/v) DMSO alone (no inhibition control). All samples are tested in triplicate. Following compound incubation, growth medium is discarded, cells are washed with DPBS (1×) (Gibco #14190-144) and lysed in 1 mL of CelLytic™ M (Sigma #C2978) containing 1× Halt phosphatase and protease inhibitor cocktails (Pierce #78442). Plates are placed on ice for 1 hour with gentle agitation and stored at −80° C. overnight. The next day, cell lysates are placed in 1.5 mL tubes and cleared by centrifugation at 16,000×g for 10 minutes at 4° C. Supernatants are quantified by BCA (Pierce #23225) and stored at −80° C. Samples are analyzed by Simple Western (Protein Simple) with anti-phospho-BTK (Y223) (Cell signaling technologies (cst) #5082) and anti-BTK (cst #8547). β-actin is the used as a loading control and detected by regular Western blot with an anti-β-actin antibody (cst #4970). Simple Western results are analyzed with Compass software (Protein Simple). BTK Y223 phosphorylation signal is normalized to total BTK, and IC50 values are calculated using a 4-parameter fit in GraphPad Prism 7.04 software.

T1 sequence (Q06187 whole entry): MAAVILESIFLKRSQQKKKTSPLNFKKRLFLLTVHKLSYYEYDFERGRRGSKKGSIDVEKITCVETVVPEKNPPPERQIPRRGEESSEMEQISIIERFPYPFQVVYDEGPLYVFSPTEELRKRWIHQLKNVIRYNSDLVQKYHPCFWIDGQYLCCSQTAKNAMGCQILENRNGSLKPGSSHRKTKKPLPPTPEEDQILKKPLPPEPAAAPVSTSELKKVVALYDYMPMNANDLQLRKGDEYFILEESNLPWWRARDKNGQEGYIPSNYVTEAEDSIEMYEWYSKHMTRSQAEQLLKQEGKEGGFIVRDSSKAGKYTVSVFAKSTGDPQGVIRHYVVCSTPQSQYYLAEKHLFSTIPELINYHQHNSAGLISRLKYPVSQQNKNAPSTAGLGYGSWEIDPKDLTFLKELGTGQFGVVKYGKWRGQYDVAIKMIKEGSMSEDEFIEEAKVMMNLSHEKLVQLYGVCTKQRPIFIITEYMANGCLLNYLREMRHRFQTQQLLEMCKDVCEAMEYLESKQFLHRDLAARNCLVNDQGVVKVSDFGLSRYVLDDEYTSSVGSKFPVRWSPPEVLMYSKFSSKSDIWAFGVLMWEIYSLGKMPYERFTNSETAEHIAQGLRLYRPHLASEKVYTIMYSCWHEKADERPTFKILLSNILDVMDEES

SMILES: COc1ccc(F)cc1C(=O)NCc1ccc(-c2nn([C@@H](C)C(F)(F)F)c(N)c2C(N)=O)cc1 [BTK-I, (S)-5-amino-3-(4-((5-fluoro-2-methoxybenzamido)methyl)phenyl)-1-(1,1,1-trifluoropropane-2-yl)-1H-pyrazole-4-carboxamide]
- responses/patients (DLBCL): 6/25
- responses (Richter's transformation): 75%
- IC90 (BTK wild type; read-out: IC90): 77.4 nM
- IC90 (BTK wild type; read-out: IC90 translated to total drug in human plasma): ~0.806 µg/mL
- IC50 (BTK wild type; expressed as plasma concentration, read-out: IC50, inhibition of BTK in vitro): 192 nM

Source: patent US12551463B2, “Dosing of a Bruton's tyrosine kinase inhibitor” (Loxo Oncology, Inc., priority 2019, dated 2026)
